EPA's ToxValDB 9.5 (doi:10.2903/j.efsa.2016.4518)

Experiments:
Typhlodromus pyri = assay: LR50; higher = less toxic; settings: not reported; duration: 7 days; mortality
Poecilus cupreus = assay: LR50; higher = less toxic; settings: not reported; duration: 19 days; mortality
Apis mellifera = settings: acute, mortality
Colinus virginianus = settings: acute, oral, mortality
Bibionidae = settings: chronic/long-term; duration: 28 days
Canidae = settings: oral, Dog Other, hematological
Anas platyrhynchos = settings: reproductive; duration: 20 weeks
Tagia sp. = settings: chronic/long-term; duration: 56 days; mortality
Pimephales promelas = settings: chronic/long-term; duration: 264 days; other
Hypoaspis aculeifer = settings: chronic/long-term; duration: 21 days; mortality

Q: `CON(C)C(=O)Nc1ccc(Cl)c(Cl)c1` [Linuron] was tested. Which LR50 (Typhlodromus pyri) did it give?
A: 42.7 g/ha

Q: What about the LR50 (Poecilus cupreus) of the same molecule?
A: > 927 g/ha

Q: What about the LD50 (Rattus norvegicus; acute, oral, mortality) of the same molecule?
A: 1000 mg/kg

Q: And the LOAEL (Rattus norvegicus; chronic, duration: 2 years, other)?
A: 1.3 mg/kg-day

Q: What about the NOAEL (Rattus norvegicus; reproduction developmental, body weight) of the same molecule?
A: 0.8 mg/kg-day

Q: What about the LD50 (Apis mellifera; dermal) of the same molecule?
A: > 97.8 µg/piece

Q: And the LD50 (Apis mellifera; oral, unspecified)?
A: > 112 µg/piece

Q: And the LD50 (Colinus virginianus; diet)?
A: 121 mg/kg-day

Q: And the LD50 (Colinus virginianus)?
A: 314 mg/kg-day

Q: And the NOEC (Bibionidae)?
A: 9.5 mg/kg

Q: And the NOAEL (Canidae; chronic, duration: 1 years)?
A: 0.9 mg/kg-day

Q: What about the NOAEL (Canidae; subchronic, duration: 90 days) of the same molecule?
A: 0.9 mg/kg-day

Q: And the NOAEL (Anas platyrhynchos)?
A: 13.9 mg/kg-day

Q: And the NOEC (Tagia sp.)?
A: 6.78 mg/kg

Q: What about the NOEC (Pimephales promelas) of the same molecule?
A: 97 µg/L

Q: What about the NOEC (Hypoaspis aculeifer) of the same molecule?
A: 3.39 mg/kg
